Key:
[1] = test system: patients with schizophrenia; assay: Phase II CIAS trial: cognition by MCCB, compound I add-on to antipsychotics vs placebo; type: in vivo, human; set-up: Change from baseline in MCCB overall composite score at Week 12, adjusted mean / Change from baseline in MCCB overall composite score at Week 12, comparison vs. placebo, adjusted mean: scale not given here; details: for Change from baseline in MCCB overall composite score at Week 12, adjusted mean: 12 weeks; for Change from baseline in MCCB overall composite score at Week 12, adjusted mean / Change from baseline in MCCB overall composite score at Week 12, comparison vs. placebo, adjusted mean: MMRM; for Change from baseline in MCCB overall composite score at Week 12, adjusted mean / Change from baseline in MCCB overall composite score at Week 12, comparison vs. placebo, adjusted mean / Proportion of responders, change from baseline in MCCB overall composite score at Week 12 / Responders, comparison vs. placebo, odds ratio: FAS; for Responders, comparison vs. placebo, odds ratio: logistic regression
Excerpt: This trial was designed to investigate whether compound I as an add-on therapy to antipsychotics (except clozapine) can improve cognitive symptoms in patients with schizophrenia.
The primary endpoint was cognition assessed using the Measurement and Treatment Research to Improve Cognition in Schizophrenia (MATRICS) consensus cognitive battery (MCCB).
• 1) Men or women who are 18-50 years (inclusive) of age at time of consent with established schizophrenia (as per DSM-5) with the following clinical features: • Outpatient, with no hospitalization for worsening of schizophrenia within 3 months (hospitalization for social management and/or day hospital programs within this time are acceptable) prior to randomization • Medically stable over the prior 4 weeks and psychiatrically stable without symptom exacerbation within 3 months prior to randomization • patients who have no more than a “moderate severe” rating on the Positive and Negative Symptom Scale (PANSS) positive items P1, P3-P7 (item score≤5) and no more than a “moderate” rating on the PANSS positive item P2 (item score≤4) • 2) Current antipsychotic and concomitant psychotropic medications as assessed at Visit 1 must meet the criteria below: • a. patients may have up to 2 antipsychotics (typical and/or atypical) • b. patients must be maintained on current typical and/or atypical antipsychotics other than Clozapine and on current dose for at least 4 weeks prior to randomization and/or maintained on current long acting injectable antipsychotics and current dose for at least 3 months prior to randomization • c. patients must be maintained on current concomitant psychotropic medications, anticholinergics, antiepileptics and/or lithium for at least 3 months prior to randomization and on current dose for at least 4 weeks prior to randomization.
Patients eligible for the trial were randomly assigned, in a 1:1:1:1:2 ratio to either • 2 mg compound I • 5 mg compound I • 10 mg compound I • 25 mg compound I • Placebo
An MCPMod approach combined with MMRM was used to establish the proof of concept in this trial.
The null hypothesis was that there was a flat dose-response pattern across placebo and any dose of compound I within the tested dose range on the mean change in the MCCB overall composite score from baseline to Week 12. The alternative hypothesis was that there was a non-flat dose-response pattern indicating a benefit of compound I versus placebo.
(§1) Patients in the FAS were analysed according to the ITT principle, i.e. according to their randomised trial medication. The FAS was used for analyses of efficacy.
The primary endpoint of this trial was the change from baseline in cognitive function as measured by the MCCB overall composite score after 12 weeks of treatment. The primary efficacy analysis was based on the full analysis set (FAS).
Model includes fixed, categorical factors of planned treatment, analysis visit, and planned treatment by analysis visit interaction, as well as the continuous fixed covariate of baseline value and baseline value by analysis visit interaction. Subject is treated as random effect. Unstructured covariance structure was used to fit the mixed model. Kenward-Roger was used to model degrees of freedom.

[2] = test system: patients with mild to moderate dementia due to AD; assay: AD trial: cognition by ADAS-Cog11, compound I vs placebo; type: in vivo, human; details: for Change from baseline in ADAS-Cog11 total score at Week 12, adjusted mean / Change from baseline in ADAS-Cog11 total score at Week 12, comparison vs. placebo, adjusted mean: MMRM, FAS (OC)
Excerpt: This trial was designed to investigate whether compound I either alone as monotherapy or as an add-on therapy to acetylcholinesterase inhibitors can improve cognitive symptoms in patients with AD.
The primary endpoint was change from baseline in ADAS-Cog11 (Alzheimer's Disease Assessment Scale-cognitive subscale) total score after 12-week treatment. (Lower values in the ADAS-Cog11 score indicate better cognitive function.)
• 1) Diagnosis of mild-to-moderate Alzheimer's Disease Dementia according to the recommendations from the National Institute on Aging-Alzheimer's Association workgroups on diagnostic guidelines for Alzheimer's disease. • 2) Male or female patients at least 55 years of age. Patients older than 85 years could be included based on an acceptable general health status, (e.g. concomitant diseases, physical capability to follow the required study procedures (visits etc.)) at discretion of the investigator • 3) MMSE score of 15-26 at screening (Visit 1). • 4) Concomitant use of AChEIs allowed but not required. Key Exclusion Criteria • 1) Dementia secondary to disorders other than Alzheimer's Disease Dementia. • 2) Any central nervous system disease other than AD which according to the investigator may be associated with worsening of cognition. • 3) Any suicidal behaviour in the past 2 years (i.e. actual attempt, interrupted attempt, aborted attempt, or preparatory acts or behaviour). • 4) Any suicidal ideation of type 4 or 5 in the C-SSRS in the past 3 months (i.e. active suicidal thought with intent but without specific plan, or active suicidal thought with plan and intent). • 5) Previous participation in investigational drug studies of dementia of Alzheimer's Type within three months prior to screening. Patients having received any active treatment in studies targeting disease modification of AD are excluded.
Patients eligible for the trial were randomly assigned, in a 1:1:1:1:1 ratio to either • 2 mg compound I • 5 mg compound I • 10 mg compound I • 25 mg compound I • Placebo
An MCPMod approach combined with MMRM was used to test for the proof of concept in this trial.
as §1
The primary endpoint was the change from baseline in ADAS-Cog11 total score after 12 weeks of treatment. The analyses for PoC and dose-finding were done using the MCPmod technique for MMRM.
Model includes fixed, categorical factors of planned treatment (p-value=0.3425), analysis visit (p-value=0.7890), baseline MMSE stratification factor (≥20, <20) (p-value≤0.0001), and planned treatment by analysis visit interaction (p-value=0.7534), as well as the continuous fixed covariate of baseline value (p-value≤0.0001) and baseline value by analysis visit interaction (p-value=0.1185).

[3] = test system: patients with mild to moderate dementia due to AD; assay: AD trial: safety (AEs, laboratory tests); type: in vivo, human; details: 25 mg treatment group
Protocol: This was a 12-week, multi-centre, multi-national, randomised, double-blind, double-dummy, placebo-controlled, parallel-group trial in patients with mild to moderate dementia due to AD.
(§2) The TS included all patients who were randomised and were treated with ≥1 dose of trial medication. Patients in the TS were analysed according to the actual trial medication they received at randomisation. The TS was used for analyses of safety, demographics, and baseline characteristics.
Safety assessments included the frequency of AEs, recording of vital signs, ECG measurements, standard laboratory tests, physical examination, and C-SSRS questionnaires.

[4] = Animal cognition tasks with CSF glycine and CSF compound levels; type: in vivo; details: animals, efficacious doses
CSF glycine [5] = assay: as above; type: in vivo; details: animals
CSF glycine [6] = assay: Proof of clinical mechanism trial in healthy volunteers; type: in vivo, human; details: 10 mg dose
[7] = test system: patients with schizophrenia; assay: Phase II CIAS trial: safety (AEs, laboratory tests, PANSS, C-SSRS)
Protocol: This was a 12-week, multi-centre, multi-national, randomised, double-blind, double-dummy, placebo-controlled, parallel-group trial in patients with clinically stable schizophrenia.
as §2
Safety was assessed based on the frequency of AEs, recording of vital signs, ECG measurements, standard laboratory tests, physical examination, neurological examination, as well as PANSS and C-SSRS questionnaires.

## C[C@@H](Oc1ccc(S(C)(=O)=O)cc1C(=O)N1C[C@@H]2C[C@]2(c2cc(C(F)(F)F)on2)C1)C(F)(F)F [compound I, [5-(methylsulfonyl)-2-{[(2R)-1,1,1-trifluoropropan-2-yl]oxy}phenyl] {(1R,5R)-1-[5-(trifluoromethyl)-1,2-oxazol-3-yl]-3-azabicyclo[3.1.0]hex-3-yl}methanone]
[1]; 2 mg
  Effect on cognition (dose considerations, Phase II trial): ineffective
[1]; 2 mg once daily oral
  Change from baseline in MCCB overall composite score at Week 12, adjusted mean: 1.784
[1]; 2 mg once daily
  Change from baseline in MCCB overall composite score at Week 12, comparison vs. placebo, adjusted mean: 0.280
[1]; 5 mg
  Effect on cognition (dose considerations, Phase II trial): numerically improved cognition in Asian subpopulation
[1]; 5 mg once daily oral
  Change from baseline in MCCB overall composite score at Week 12, adjusted mean: 1.641
[1]; 5 mg once daily
  Change from baseline in MCCB overall composite score at Week 12, comparison vs. placebo, adjusted mean: 0.137
[1]; 10 mg
  Effect on cognition (dose considerations, Phase II trial), primary endpoint: separated best from placebo
[1]; 10 mg and 25 mg treatment groups compared with placebo
  Change from baseline in MCCB neurocognitive composite score at Week 12: A larger change from baseline was observed
[1]; 10 mg once daily oral
  Change from baseline in MCCB overall composite score at Week 12, adjusted mean: 3.486
[1]; 10 mg once daily
  Change from baseline in MCCB overall composite score at Week 12, comparison vs. placebo, adjusted mean: 1.982
[1]; 25 mg
  Effect on cognition (dose considerations, Phase II trial): efficacy less consistent across analyses than the 10 mg dose
[1]; 25 mg once daily oral
  Change from baseline in MCCB overall composite score at Week 12, adjusted mean: 3.234
[1]; 25 mg once daily
  Change from baseline in MCCB overall composite score at Week 12, comparison vs. placebo, adjusted mean: 1.730
[1]; certain doses, patients having schizophrenia
  Cognitive performance compared to placebo, phase 2 clinical trial: improves cognitive performance
[1]; doses of 2 to 25 mg
  Dose-response for change from baseline at Week 12 in MCCB overall composite T-score: non-flat dose-response curve
[1]; responder ≥3, 2 mg
  Proportion of responders, change from baseline in MCCB overall composite score at Week 12: 46.3%
  Responders, comparison vs. placebo, odds ratio: 1.184
[1]; responder ≥3, 5 mg
  Proportion of responders, change from baseline in MCCB overall composite score at Week 12: 42.3%
  Responders, comparison vs. placebo, odds ratio: 1.006
[1]; responder ≥3, 10 mg
  Proportion of responders, change from baseline in MCCB overall composite score at Week 12: 61.5%
  Responders, comparison vs. placebo, odds ratio: 2.200
[1]; responder ≥3, 25 mg
  Proportion of responders, change from baseline in MCCB overall composite score at Week 12: 47.4%
  Responders, comparison vs. placebo, odds ratio: 1.241
[1]; responder ≥4, 2 mg
  Proportion of responders, change from baseline in MCCB overall composite score at Week 12: 40.3%
  Responders, comparison vs. placebo, odds ratio: 1.298
[1]; responder ≥4, 5 mg
  Proportion of responders, change from baseline in MCCB overall composite score at Week 12: 38.0%
  Responders, comparison vs. placebo, odds ratio: 1.180
[1]; responder ≥4, 10 mg
  Proportion of responders, change from baseline in MCCB overall composite score at Week 12: 52.6%
  Responders, comparison vs. placebo, odds ratio: 2.131
[1]; responder ≥4, 25 mg
  Proportion of responders, change from baseline in MCCB overall composite score at Week 12: 41.0%
  Responders, comparison vs. placebo, odds ratio: 1.338
[1]; responder ≥5, 2 mg
  Proportion of responders, change from baseline in MCCB overall composite score at Week 12: 35.8%
  Responders, comparison vs. placebo, odds ratio: 1.370
[1]; responder ≥5, 5 mg
  Proportion of responders, change from baseline in MCCB overall composite score at Week 12: 32.4%
  Responders, comparison vs. placebo, odds ratio: 1.176
[1]; responder ≥5, 10 mg
  Proportion of responders, change from baseline in MCCB overall composite score at Week 12: 44.9%
  Responders, comparison vs. placebo, odds ratio: 1.998
[1]; responder ≥5, 25 mg
  Proportion of responders, change from baseline in MCCB overall composite score at Week 12: 39.7%
  Responders, comparison vs. placebo, odds ratio: 1.619
[2]; 2 mg once daily oral
  Change from baseline in ADAS-Cog11 total score at Week 12, adjusted mean: −0.02
[2]; 2 mg
  Change from baseline in ADAS-Cog11 total score at Week 12, comparison vs. placebo, adjusted mean: 0.05
[2]; 5 mg once daily oral
  Change from baseline in ADAS-Cog11 total score at Week 12, adjusted mean: 0.23
[2]; 5 mg
  Change from baseline in ADAS-Cog11 total score at Week 12, comparison vs. placebo, adjusted mean: 0.30
[2]; 10 mg once daily oral
  Change from baseline in ADAS-Cog11 total score at Week 12, adjusted mean: 0.69
[2]; 10 mg
  Change from baseline in ADAS-Cog11 total score at Week 12, comparison vs. placebo, adjusted mean: 0.76
[2]; 25 mg once daily oral
  Change from baseline in ADAS-Cog11 total score at Week 12, adjusted mean: −0.08
[2]; 25 mg
  Change from baseline in ADAS-Cog11 total score at Week 12, comparison vs. placebo, adjusted mean: −0.02
[2]; 2 to 25 mg
  Dose-response of change from baseline in ADAS-Cog11 total score at Week 12 (MCPmod, 6 models): no dose response relation was observed
[2]; change from baseline
  Secondary and further endpoints: ADCS-ADL, CIBIC+, cognitive composite, COWAT, VFT, Coding, Digit Span Backwards: no treatment differences indicative of a benefit were found
[2]; same doses regimen as CIAS
  Improvement of cognition in patients suffering from Alzheimer's disease: ineffective
[3]
  Decrease of haemoglobin levels, maximum effect: 5.7%
[4]
  CSF levels of compound I required for efficacy: 1-2 × GlyT1 IC50
CSF glycine [5]
  Increase of CSF glycine at doses efficacious in animal cognition tasks: approximately 50%
CSF glycine [6]
  CSF glycine increase and CSF level criteria: these criteria were met by the 10 mg dose
[7]; 2 mg
  Haemoglobin, mean change from baseline at last on-treatment value: -0.2 g/L
  Haemoglobin, relative change from baseline: −0.1%
[7]; 5 mg
  Haemoglobin, mean change from baseline at last on-treatment value: -0.7 g/L
  Haemoglobin, relative change from baseline: −0.5%
[7]; 10 mg
  Haemoglobin, mean change from baseline at last on-treatment value: 3.3 g/L
  Haemoglobin, relative change from baseline: −2.3%
[7]; 25 mg
  Haemoglobin, mean change from baseline at last on-treatment value: 4.5 g/L
  Haemoglobin, relative change from baseline: −3.2%
[7]; all dose groups vs placebo
  Headache (most frequently observed AE): reported more frequently in all dose groups of compound I than placebo
[7]; all treatment groups, 12 weeks
  Deaths: no deaths
[7]; any treatment arm
  Patients reporting on-treatment AEs: Approximately 50%
[7]; compound I vs placebo
  Suicidal ideation and behaviour assessed using C-SSRS: No significant differences
[7]; in vivo
  Worsening of schizophrenia assessed by PANSS total score: no worsening of schizophrenia

From patent US12059408B2, “Treatment of cognitive impairment associated with schizophrenia” (Boehringer Ingelheim International GmbH, priority 2020, dated 2024)
